The text below walks through data of patent US20060205679A1, “Topical and oral formulations of cardiac glycosides for treating skin diseases” (Azaya Therapeutics, Inc., priority 2004, published 2006).

The structures appear in SMILES notation.

For data set [1], the system named is cultered cancer cell lines. As to conditions: cited from earlier work.
In data set [2] the test system is human malignant cell lines. The following applies: rapidly proliferating normal cells not affected; cited from earlier work.
The subject of data set [3] is primary cultures of tumor cells from patients and a human cell line panel. The following applies: cited from earlier work.
Data set [4] concerns androgen independent human prostate cancer cell lines. The following applies: in-vitro; cited from earlier work.
The conditions of data set [5]: in 50 ml of 9.6% solution of hydroxypropyl-β-cyclodextrin, 70 to 80° C.
Experimental: 200 mg of oleandrin was weighed and placed in a sterile test tube. The oleandrin was dissolved in 3 to 5 mL of purified absolute ethanol. […] The ethanolic solution of oleandrin was slowly added to the beaker with stirring. […] The solution was sterile-filtered through a 0.22 μm filter. The solution was frozen below −40° C. and lyophilized.
500 mg of digitoxin was weighed and placed in a sterile test tube. […] The ethanolic solution of digitoxin was slowly added to the beaker with stirring. […] The solution was sterile-filtered through a 0.22 μm filter. The solution was frozen below −40° C. and lyophilized.
200 mg of proscillaridin-A was weighed and placed in a sterile test tube and was dissolved in 5 to 10 mL of purified absolute ethanol. […] The ethanolic solution of proscillaridin-A was slowly added to the beaker with stirring. […] The solution was sterile filtered through a 0.22 μm filter. The solution was frozen below −40° C. and lyophilized.
Data set [6] relates to FGF-2 release from PC3 cells. The following applies: oleandrin 0.1 ng/mL; cited from earlier work.
The subject of data set [7] is FGF-2 release from DU145 cells. As to conditions: oleandrin 0.1 ng/mL; cited from earlier work.
The next data set has as its system human cancer cells. As to conditions: cited from earlier work.
The next data set has as its system murine cancer cells. As to conditions: cited from earlier work.
The subject of a further data set is NF-κB. The following applies: cited from earlier work.
In the next data set the test system is AP-1. As to conditions: cited from earlier work.
In data set [8] the test system is c-Jun NH2-terminal kinase. The following applies: cited from earlier work.
The conditions of data set [9]: cited from earlier work.

On to `CO[C@@H]1C[C@H](O[C@H]2CC[C@@]3(C)[C@H](CC[C@@]45O[C@@]46CC[C@H](C4=CC(=O)OC4)[C@@]6(C)CC[C@H]35)C2)O[C@H](C)[C@@H]1O` [adynerin], for which the anti-cancer activity entry in data set [1] was “significant anti-cancer activity”.

`C[C@H]1O[C@@H](O[C@H]2[C@@H](O)C[C@H](O[C@H]3[C@@H](O)C[C@H](O[C@H]4CC[C@@]5(C)[C@H](CC[C@@H]6[C@@H]5CC[C@]5(C)[C@@H](C7=CC(=O)OC7)CC[C@]65O)C4)O[C@@H]3C)O[C@@H]2C)C[C@H](O)[C@@H]1O` [digitoxin]: in data set [2], the “growth and apoptosis at non-toxic concentrations” value is “inhibit growth and induce apoptosis”.

As to `C[C@H]1O[C@@H](O[C@H]2[C@@H](O)C[C@H](O[C@H]3[C@@H](O)C[C@H](O[C@H]4CC[C@@]5(C)[C@H](CC[C@@H]6[C@@H]5C[C@@H](O)[C@]5(C)[C@@H](C7=CC(=O)OC7)CC[C@]65O)C4)O[C@@H]3C)O[C@@H]2C)C[C@H](O)[C@@H]1O` [digoxin], the “selective toxicity against solid or hematological tumor cells from patients” value in data set [3] was “selective toxicity against solid tumor cells”. The “growth and apoptosis at non-toxic concentrations” value in data set [2] was “inhibit growth and induce apoptosis”. Besides, the induction of apoptosis entry in data set [4] is “induce apoptosis”.

`CO[C@H]1C[C@H](O[C@H]2CC[C@@]3(C)[C@H](CC[C@@H]4[C@@H]3CC[C@]3(C)[C@@H](C5=CC(=O)OC5)[C@@H](OC(C)=O)C[C@]43O)C2)O[C@@H](C)[C@@H]1O` [oleandrin, 16β-acetoxy-3β-[(2,6 dideoxy-3-0-methyl-α2-L-arabino-hexopyranosyl)oxy]-14-hydroxy-5β, 14β-card-20(22)-enolide] registered an amount effectively solubilized in data set [5] of 200 mg. For the same molecule, in [6], the “inhibition of FGF-2 release” value is 45.7%. The “inhibition of FGF-2 release” value in data set [7] is recorded as 49.9%. In addition, in [1], the anti-cancer activity entry is reported as “significant anti-cancer activity”. In addition, the “ability to kill human cancer cells” value with human cancer cells was “able to kill”. Further, the “toxicity to murine cancer cells” value in the data set on murine cancer cells was “not toxic”. The induction of apoptosis result in [4] is “induce apoptosis”. In the data set on NF-κB, the “NF-κB activation induced by phorbol esters and bacterial lipopolysaccharide” value is listed as “blocked”; the “NF-κB-dependent reporter gene transcription activated by TNF” value is reported as “suppressed”. In addition, the “TNF induced activation of NF-κB” value with NF-κB (concentration and time dependent) is “blocked”. In addition, in the data set with AP-1, the “AP-1 activation induced by TNF and other stimuli” value was “blocked”. Besides, the “TNF induced activation of c-Jun NH2-terminal kinase” value in data set [8] is given as “inhibited”. For the same molecule, the “solubility in organic solvents” value in data set [9] (ethanol and chloroform) was “soluble”. In [9] (heat), the “stability with respect to heat” value is “heat stable”. Also, the “stability with respect to light” value in data set [9] (light) was “unstable”. Besides, the solubility in water entry in data set [9] (water) is recorded as “almost insoluble”.

Regarding `C[C@@H]1O[C@@H](O[C@H]2C[C@@H](O)[C@]3(CO)[C@H]4[C@H](O)C[C@]5(C)[C@@H](C6=CC(=O)OC6)CC[C@]5(O)[C@@H]4CC[C@]3(O)C2)[C@H](O)[C@H](O)[C@H]1O` [ouabain], in data set [4], the induction of apoptosis entry was “induce apoptosis”.

In data set [5], `C[C@@H]1O[C@@H](O[C@@H]2C=C3CC[C@@H]4[C@H](CC[C@]5(C)[C@@H](c6ccc(=O)oc6)CC[C@]45O)[C@@]3(C)CC2)[C@H](O)[C@H](O)[C@H]1O` [proscillaridin-A, Proscillaridin A, reference compound] showed an amount effectively solubilized of 200 mg. For the same molecule, the “selective toxicity against solid or hematological tumor cells from patients” value in [3] is given as “no selective toxicity”.

As for `C[C@H]1[C@H](C)CC[C@]2(C(=O)O)CC[C@]3(C)C(=CC[C@@H]4[C@@]5(C)CC[C@H](O)C(C)(C)[C@@H]5CC[C@]43C)[C@H]12` [ursolic acid], in [1], the anti-cancer activity entry is given as “significant anti-cancer activity”.
